The subject of data set [1] is CNV lesions. The experiment in a line: laser-induced CNV in mice, lesion size in choroidal flat mounts. It counts as in vivo, mouse. The settings on record: for CNV lesions on day 14: treatment from day 1 or from day 7 after laser injury. From the text:
(§1) To induce CNV, C57BL/6 mice were anesthetized and pupils were dilated with 5% phenylephrine and 0.8% tropicamide. Using a 532-nm laser (Oculight GLx, Iridex), a slit-lamp delivery system, and a cover glass as a contact lens, four spots (100 mW, 50 μm, 100 ms) were placed in each eye. The lesions were located at 3, 6, 9 and 12 o'clock, meridians centered on the optic nerve head and located 2 to 3 disk diameter from the optic nerve head. The same technique was used to induce CNV in Brown Norway rats (four spots, 150 mW, 100m, 100 ms) 53,54 and cynomolgus monkeys (700 mW, 100m, 100 ms) 29. Development of a bubble under laser radiation confirmed the rupture of the Bruch's membrane. Eyes showing hemorrhage were excluded from experiments.
(§2) Seven or fourteen days after laser injury, the size of CNV lesions was measured in choroidal flat mounts. Briefly, mice were anesthetized and perfused through the left ventricle with PBS, followed by 5 ml of 5% fluorescein isothiocyanate-dextran (FD2000S; Sigma Aldrich) in 1% gelatin. The anterior segment and retina were removed from the eyecup. The remaining retinal pigment epithelium (RPE)-choroidsclera complex was flat mounted, after relaxing radial incisions, using Mounting Medium (FM 100119, Thermo Scientific) and coverslips. Micrographs of the choroidal complex were taken with a Leica Microscope. The volume of the lesions was quantified, using confocal microscopy (Leica TCS SP2 laser scanning confocal microscope). The magnitude of the CNV lesions was determined by measuring the hyperfluorescent area with Openlab Software (Improvision). The grade of leakage was determined by Fluorescein angiography (FA).
The control animals received equivalent amounts of vehicle, glyceryl trioctanoate (91039, Sigma-Aldrich).

The test system of data set [2] is vascular leakage of CNV lesions. The experiment in a line: leakage from angiogenic vessels by fluorescein angiography after laser injury. The data set is classed as in vivo, mice. As to the method:
FA was performed in anesthetized Brown Norway rats from ROCK inhibitor or vehicle treated groups, using a digital fundus camera (SLO; HRA2; Heidelberg Engineering), 7 and 14 days after laser injury. Fluorescein injections were performed intravenously (0.2 ml of 2% fluorescein; Akorn, NDC 17478-253-10). Monkeys were injected with 5% fluorescein intravenously (Fluorescite, Alcon). FA images were evaluated by two masked retina specialists. The grading criteria were as follows: Grade-0, no hyperfluorescence; Grade-I, hyperfluorescence without leakage; Grade-IIA, hyperfluorescence in the early or mid-transit images and late leakage; Grade-IIB, bright hyperfluorescence in the transit images and late leakage beyond the treated areas. The Grade-IIB lesions were considered as clinically significant, as described previously 53. […] The control animals received equivalent amounts of vehicle, glyceryl trioctanoate (91039, Sigma-Aldrich).

The subject of data set [3] is CNV lesions. The experiment in a line: laser-induced CNV in rats, intravitreal ROCK inhibition. It counts as in vivo, Brown Norway rats.
Excerpt: as §1
as §2, with “The remaining retinal pigment epithelium (RPE)-choroidsclera complex was flat mounted, after relaxing radial incisions, using Mounting Medium (FM 100119, Thermo Scientific) and coverslips. Micrographs of the choroidal complex were taken with a Leica Microscope.” left out, “(FA). […]” for “(FA).”

The nature of data set [4]: electroretinography (ERG) after intravitreal injection. It counts as in vivo, Brown Norway rats. The settings on record: rats, intravitreal injections on days 0, 3 and 6. Here is the method:
On day 13, rats were dark-adapted overnight and then anesthetized. Pupils were dilated using 1% tropicamide. Methods for recording dark- and light-adapted ERGs were performed as previously described 55.

The next data set deals with HUVEC cells. Briefly: cytoskeletal staining (F-actin, paxillin) of HUVEC cells. The data set is classed as cell-based. Particulars: versus vehicle treated controls. The text has this:
FIG. 11A depicts HUVEC cells stained for the cytoskeletal proteins F-actin and paxillin. […] Scale bar, 20 μm. FIG. 11B depicts Western analysis of HUVECs transfected with siRNA targeting of ROCK1, ROCK2, or both. Negative control, a scramble 20-mer RNA. BlockIt (Invitrogen), a fluorescently labeled RNA to track uptake/transfection efficiency.

Data set [5] deals with CD11b/CD206 infiltrating cells in CNV. The experiment in a line: FACS analysis of infiltrating cells from CNV eyes. It counts as in vivo, mouse. Here is the method: To examine macrophages in the retina and choroid, cells were prepared from mouse eyes. To collect a sufficient number of ocular infiltrating cells, 50 burns were delivered to mouse eyes by laser. After laser injury, eyes were enucleated at different time points (1, 2, 3, 5, and 7 days). The anterior segment (cornea, iris, and lens) was excised and the posterior segment of the eye including sclera, choroid, and retina was disrupted with scissors and then shaken in DMEM (plus 10% FBS (Gibco Laboratories), 100 U/ml penicillin, 100 μg/ml streptomycin) supplemented with 0.5 mg/ml Collagenase type D (11 088 874 103, Boehringer Mannheim) at 37° C. for 60 min. The supernatants were collected and passed through a mesh. After 3 washes, viable cells were obtained. A total of 12 eyes (6 individual pools) were examined per group. The cells were stained with PE anti-mouse CD11b (557397, BD Pharmingen), FITC antimouse CD206 (MMR, 123005; BioLegend) and PE-Cy5 anti-mouse CD80 Abs (15-0801-81, eBioscience). RAW 264.7 cells were stained with PerCP anti-mouse CD11b (101230, BioLegend), PerCP anti-mouse F4/80 (123006, BioLegend), PE anti-mouse CD80 (12-0801, eBioscience), FITC anti-mouse CD206 (141704, BioLegend). […] The control animals received equivalent amounts of vehicle, glyceryl trioctanoate (91039, Sigma-Aldrich).

The target of data set [6] is T1, ROCK1 (Homo sapiens, UniProt Q13464).
T1 construct: recombinant ROCK1 and ROCK2 enzymes containing the truncated catalytic domains (PV3691 and PV3759) were purchased from Invitrogen; purchased Invitrogen PV3691
Particulars: at concentrations up to 10 μM; cited from earlier work.

For data set [7] the following is noted: in vivo; cited from earlier work.
For data set [8], the target named is T1, ROCK1. Briefly: ROCK1 enzymatic activity, [γ33P]ATP / S6 kinase substrate radiometric assay (FIG. 7A). It counts as biochemical. The settings on record: FIG. 7B; ROCK1 versus ROCK2.
In a further data set the test system is protein kinase A and C. Particulars: cited from earlier work.
Data set [9] relates to CNV lesions. The experiment in a line: laser-induced CNV in cynomolgus monkeys, intravitreal fasudil. It counts as in vivo, cynomolgus monkey. As to the method: Eyes from cynomolgus monkeys between 3 and 4 years of age were used in this study. Cynomolgus monkeys were restrained in a squeeze cage and injected intramuscularly in the thigh with 20 mg/kg of ketamine hydrochloride (Sankyo Yell Pharmaceutical Products Co) for general anesthesia.
Paraffin embedded sections of human eyes were deparaffinized and rehydrated with a graded alcohol series. Immunofluorescent staining was performed with antibodies (Abs) against human von Willebrandt factor (F3520, Sigma), human MMR (CD206, MAB2534, R&D Systems), human CD80 (ab53003 Abcam) or human ROCK1 (sc-17794, Santa Cruz Biotechnology) or ROCK2 (sc-1851, Santa Cruz Biotechnology) and identified with Alexa Fluor 488 (10 μg/ml, A-11055; Invitrogen) or 647 (10 μg/ml, A21244; Invitrogen) secondary Abs. On day 3 after laser injury, 10 μm frozen sections of the posterior segment were prepared. The mouse eye sections were incubated with a rat anti-mouse F4/80 mAb (MCA497R, AbD Serotec) or CD11b (550282, BD Pharmingen), and subsequently with the secondary Ab. In monkey eyes, CD68 (goat polyclonal antibody, sc-7082, Santa Cruz), vWF (rabbit polyclonal antibody, A0082, DAKO), ROCK1 (mouse monoclonal antibody, sc-17794, Santa Cruz) and ROCK2 (goat polyclonal antibody, sc-1851, Santa Cruz) were stained. Images were obtained with a Leica microscope.
To induce CNV, C57BL/6 mice were anesthetized and pupils were dilated with 5% phenylephrine and 0.8% tropicamide. Using a 532-nm laser (Oculight GLx, Iridex), a slit-lamp delivery system, and a cover glass as a contact lens, four spots (100 mW, 50 μm, 100 ms) were placed in each eye. The lesions were located at 3, 6, 9 and 12 o'clock, meridians centered on the optic nerve head and located 2 to 3 disk diameter from the optic nerve head. […]
FA was performed in anesthetized Brown Norway rats from ROCK inhibitor or vehicle treated groups, using a digital fundus camera (SLO; HRA2; Heidelberg Engineering), 7 and 14 days after laser injury. […] FA images were evaluated by two masked retina specialists. […]

Another data set concerns all tested kinases. Particulars: scale of 0 to 1; over 175 inhibitors; cited from earlier work.
A further data set addresses MLCK. The settings on record: read-out: Ki MLCK; cited from earlier work.
Setting [10] is: IL-4, IL-10 and IL-13 injected eyes, in addition ROCK2 inhibitor treated.
Setting [11] is: M1-cytokine cocktail injected eyes, in addition ROCK2 inhibitor treated.
[12] abbreviates: systemic treatment after laser injury.
Setting [13] is: monkeys, intravitreal injections.

Results on 3 molecules are retold here after US20180110837A1, “METHODS AND ASSAYS RELATING TO MACROPHAGE DIFFERENTIATION” (THE BRIGHAM AND WOMEN'S HOSPITAL, INC., priority 2012, published 2018).

Molecules are shown by their SMILES. Entries after “also recorded” stand apart in the source; their conditions may differ.

T1 sequence (Q13464 76-338 limits assumed): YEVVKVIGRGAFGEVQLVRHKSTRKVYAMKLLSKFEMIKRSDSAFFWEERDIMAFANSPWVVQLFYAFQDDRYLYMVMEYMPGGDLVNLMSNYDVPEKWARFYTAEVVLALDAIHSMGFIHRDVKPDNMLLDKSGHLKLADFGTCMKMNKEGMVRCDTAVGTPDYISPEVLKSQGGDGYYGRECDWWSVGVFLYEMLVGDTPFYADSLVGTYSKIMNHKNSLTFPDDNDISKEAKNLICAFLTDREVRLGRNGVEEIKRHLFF

Consider `CC(C)NC(=O)COc1cccc(-c2nc(Nc3ccc4[nH]ncc4c3)c3ccccc3n2)c1` [SLx-2119], for which the CNV size result in the data set on CNV lesions [1] (setting [10]) was “reduced to control levels”; in the data set with CNV lesions [1] (setting [12]), “significantly decreased”; in the data set on CNV lesions [1] (systemic treatment after laser injury, listed as selective ROCK2 inhibitor) it was “significantly reduced”. The CNV entry in the data set with CNV lesions [1] (setting [11]) is “remained unaffected”. The “CNV size in adiponectin−/− mice” value in the data set on CNV lesions [1] (adiponectin−/− mice) is “lack of function”. For the same molecule, the “dose at which maximum efficacy was reached” value in the data set with CNV lesions [1] (intraperitoneal) came to 10 mg/kg. Besides, the “reduction of CNV” value with CNV lesions [1] (intraperitoneal, dose of 1 mg/kg) turned out to be 66%. For the same molecule, in the data set with CNV lesions [1] (listed as ROCK2 inhibitor), the “CNV lesions on day 14” value is reported as “reduced; also recorded: CNV reduction”. Also, in data set [2] (setting [10]), the “percentage of clinically relevant 2B leakage” value is “reduced to control levels”. Also, the leakage result in data set [2] (setting [11]) was “remained unaffected”. In data set [2] (fluorescein angiography), the “leakage / percentage of the clinically relevant 2B leakages” value was “significantly decreased”. Also, in the data set on CNV lesions [3], the “CNV size (day 7)” value is “reduces CNV”. For the same molecule, in [4], the “changes in the electroretinogram (ERG)” value was “does not cause functional ERG changes”. In addition, the paxillin distribution entry in the data set on HUVEC cells is listed as “comparable to the control cells”. For the same molecule, the MaDAMs result in data set [5] is “significantly decreased”. The ROCK1 enzymatic activity entry on ROCK1 [6] was “did not affect”. The “phase I clinical (toxicity) trial” value in [7] is “successfully completed”.
Take `C[C@@H](N)[C@H]1CC[C@H](C(=O)Nc2ccncc2)CC1` [Y-27632, (R)-(+)-trans-N-(4-pyridyl)-4-(1-aminoethyl)-cyclohexanecarboxamide]: on ROCK1 [8], the “inhibitory activities against ROCK1 and ROCK2 compared” value is reported as “equipotent”. For the same molecule, the paxillin distribution result with HUVEC cells is “concentrated in the nuclear or immediate perinuclear regions”. Further, the “effect on protein kinase A and C” value with protein kinase A and C is “affect”.
Consider `Cl.O=S(=O)(c1cccc2cnccc12)N1CCCNCC1` [fasudil, 5-(1,4-diazepan-1-ylsulfonyl)isoquinoline hydrochloride], for which, at ROCK1 [8], the “inhibitory activities against ROCK1 and ROCK2 compared” value is on record as “equipotent”. Also, in the data set on CNV lesions [1] (pan ROCK inhibition, rodents), the “reduction of CNV lesions compared to control” value is reported as about 60%. Further, the “CNV size” value in the data set with CNV lesions [1] (setting [12]) is “significantly smaller”. Further, the “CNV lesions on day 14” value in the data set on CNV lesions [1] is reported as “CNV reduction”. Also, the “macrophage infiltration into CNV lesions” value in the data set with CNV lesions [9] (monkey eyes, intravitreal injection) is listed as “significantly reduced”. In addition, in the data set with CNV lesions [9] (setting [13]), the CNV membrane thickness entry was “significantly reduced” and the “percentage of the clinically relevant 2B leakages” value was “significantly reduced”. Further, the “CNV size (day 7)” value in the data set with CNV lesions [3] is given as “reduces CNV”. The “changes in the electroretinogram (ERG)” value in data set [4] is “does not cause functional ERG changes”. Besides, the paxillin distribution entry in the data set with HUVEC cells was “concentrated in the nuclear or immediate perinuclear regions”. Further, in the data set on all tested kinases, the gini score was 0.63. The “effect on protein kinase A and C” value with protein kinase A and C is recorded as “affect”. The Ki at MLCK was 36 µM.

What is called Ki is a measure of affinity in units of concentration, obtained from inhibition or displacement.
